{"source": "paper PMC11096368", "about": "“Transcriptomic signature, bioactivity and safety of a non-hepatotoxic analgesic generating AM404 in the midbrain PAG region” (Scientific Reports, 2024)", "key": {"[1]": {"assay": "Phase 1 multiple ascending dose (MAD) pharmacokinetics", "type": "in vivo, human", "conditions": "for half-life: human, plasma, oral", "description": "A randomized, double-blind, placebo-controlled Phase 1 trial (ClinicalTrials.gov identifier: NCT05484414) (02/08/2022) was conducted to assess the safety, tolerability, food effect, pharmacokinetics (PK), and pharmacodynamics (PD) of single and multiple ascending doses of SRP-001 (Quotient Sciences, Miami FL USA; Fig. 3h - k and Methods). The trial was conducted in accordance with the International Council for Harmonisation of Technical Requirements for Pharmaceuticals for Human Use (ICH), Guideline for GCP: Consolidated Guidance (E6), attained Institutional Review Board approval, and all applicable regulatory requirements for Phase 1, First in Human clinical trials. Safety measurements and plasma samples to determine PK parameters were collected throughout the study for all subjects and reviewed by the Safety Review Committee. PK stopping criteria were established to assure that systemic exposure to SRP-001 was less than or equal to the systemic exposure achieved at the NOAEL doses in the 28-day repeat-dose toxicology studies in the rat and dog. The trial’s Safety Advisory Committee has approved the publication of the Phase 1 results.\nSRP-001 was administered as an oral nanosuspension to 56 healthy volunteers across five Single Ascending Dose (SAD) and two Multiple Ascending Dose (MAD) cohorts, with 42 subjects receiving SRP-001 and 14 receiving a placebo.\nA two-part randomized, double-blind, placebo-controlled Phase 1 trial was conducted to assess the safety, tolerability, PK and PD of SRP-001 ascending doses (Quotient Sciences, Miami, FL, USA). The study was conducted in accordance with the International Council for Harmonisation of Technical Requirements for Pharmaceuticals for Human Use (ICH), Guideline for GCP: Consolidated Guidance (E6), and applicable regulatory requirements(s) including clinical research guidelines established by the Basic Principles defined in the U.S. 21 CFR Parts 50, 56, and 312 and the principles enunciated in the Declaration of Helsinki (revised version Fortaleza 2013). The clinical protocol and informed consent form were reviewed and approved by an Institutional Review Board (IRB; Advarra IRB, 6100 Merriweather Drive, Suite 600, Columbia, MD 21,044; Quotient Protocol No. SRP-101 and Quotient Sciences Study No. QSC205130; Quotient Sciences Miami, 3898 NW 7th Street, Miami, FL 33,126.). The study comprises a SAD (Part 1) assessment that includes a food effect assessment that contributes data to inform a subsequent MAD (Part 2) dose-ranging study. Safety measurements were collected throughout the study for all subjects. Blood samples were collected to determine the PK parameters of SRP-001 (ClinicalTrials.gov identifier: NCT05484414) (02/08/2022)."}, "[2]": {"assay": "7-day repeat-dose oral toxicity and toxicokinetic study, Phase II (non-GLP)", "type": "in vivo", "conditions": "both sexes, Beagle, dog, in vivo, 300 mg/kg/day, 30, 100, 300 mg/kg/d, days 1 and 7", "description": "(§1) In Phase II of this study, 0, 30, 100, or 300 mg/kg/d of SRP-001 was administered once daily for seven consecutive days to 1 Beagle dog/sex/dose (Calvert Labs/Altasciences, Scott Township, PA USA). Mortality/morbidity was observed twice daily and once prior to scheduled sacrifice. Clinical observations were evaluated prior to each dose administration and at approximately 1–3 h post-dose and once prior to scheduled sacrifice on day 8. Body weights were recorded on days 1 and 7, and a fasted body weight was recorded prior to scheduled sacrifice on day 8. Food consumption was recorded daily. Blood for evaluation of hematology, coagulation, and clinical chemistry parameters and urine for urinalysis was collected from all animals prior to treatment initiation and from all Phase II animals prior to scheduled sacrifice on day 8. Blood for toxicokinetic evaluation was collected at selected time points on days 1 and 7. Selected tissues were harvested and weighed at necropsy. No microscopic evaluations were performed. […] The clinical observations corroborated with findings of red discoloration in the duodenum of the control group female, the jejunum of the low-dose male, and the colon of both high-dose dogs.\n(§2) The reason for this is unclear; however, it may be due to a low sample size (n = 2 per dose group). Half-lives ranged from approximately 1 to 3.5 h and increased with dose and time. […] Based on these observations, SRP-001 was considered to be tolerated at 300 mg/kg when administered once daily for 7 consecutive days. Our toxicokinetic analysis indicates elevated systemic exposures to SRP-001 on Day 1 relative to Day 7. […] A plausible mechanistic explanation for this observed decrease is the induction of metabolic enzymes, likely involving UGT and potentially CYP3A enzymes, as elaborated above and substantiated by previous research. […] The NOAEL exposure parameters align well with the highest SAD dose in the Phase 1 trial, reinforcing the drug's safety profile. The observed PK decrease is not attributed to emesis but likely to enzymatic induction and will be the subject for future investigation."}, "beagle dogs": {"test_system": "beagle dogs", "assay": "7-day repeat-dose oral toxicity and toxicokinetic study, Phase II (non-GLP)", "type": "in vivo", "description": "as §1, §2"}}}
{"smiles": "CCN(CC)C(=O)c1ccccc1S(=O)(=O)NCC(=O)Nc1ccc(O)cc1", "note": "[SRP-001, N,N-diethyl-2-[[2-(4-hydroxyanilino)-2-oxo-ethyl]sulfamoyl]benzamide]", "values": [{"measurement": "PK parameters on Day 5 versus Day 1", "setting": "[1]; Phase 1 MAD cohort", "result": "decrease"}, {"measurement": "half-life", "setting": "[1]; 500 mg, MAD, 500 mg dose, Day 1, read-out: Geometric mean T1/2 (converted)", "result": 3.06, "unit": "h"}, {"measurement": "half-life", "setting": "[1]; 500 mg, MAD, 500 mg dose, Day 5, read-out: Geometric mean T1/2 (converted)", "result": 4.92, "unit": "h"}, {"measurement": "half-life", "setting": "[1]; 1000 mg, MAD, 1,000 mg dose, Day 1, read-out: Geometric mean T1/2 (converted)", "result": 4.05, "unit": "h"}, {"measurement": "half-life", "setting": "[1]; 1000 mg, MAD, 1,000 mg dose, Day 5, read-out: Geometric mean T1/2 (converted)", "result": 9.77, "unit": "h"}, {"measurement": "half-life", "setting": "[1]; MAD cohorts, read-out: Arithmetic mean T1/2 (converted)", "result": 5.57, "unit": "h"}, {"measurement": "half-life", "setting": "[1]; Phase 1 trial, read-out: Half-life", "result": "4.9 to 9.8", "unit": "h"}, {"measurement": "Tmax", "setting": "[2]", "result": "0.5 to 1.5", "unit": "h"}, {"measurement": "half-life", "setting": "[2]; read-out: Half-lives", "result": "1 to 3.5", "unit": "h"}, {"measurement": "AUC and Cmax levels versus dose", "setting": "beagle dogs; dog, in vivo", "result": "increased in a dose-dependent manner"}, {"measurement": "Body weight, food consumption, hematology, clinical chemistry, coagulation parameters", "setting": "beagle dogs; dog, in vivo", "result": "No SRP-001-related differences"}, {"measurement": "Clinical signs", "setting": "beagle dogs; dog, in vivo", "result": "loose or soft feces and emesis"}, {"measurement": "Dose considered to be tolerated", "setting": "beagle dogs; once daily for 7 consecutive days", "result": 300, "unit": "mg/kg"}]}
